Source: paper PMC3537913 (Clinical cancer research : an official journal of the …, 2012)
Structures can show the parent of a compound that is named as a salt.

Assays:
[1] = once daily by mouth, in the combination
[2] = human, in vivo, po
[3] = in vivo, cited from earlier work
[4] = clinical; details: human, in vivo, po, 50 mg/m2
[5] = Sorafenib and sorafenib N-oxide steady-state plasma concentrations, course 1; type: in vivo, human; details: for concentration at 7 day / concentration at 13 day / concentration at 21 day: human, plasma, oral
[6] = single-agent sorafenib, mean; cited from earlier work
[7] = test system: circulating endothelial cells (CECs); experiment: Six-color flow cytometry of blood; type: in vivo, human; details: day 21, p = 0.01
[8] = Sorafenib first-dose pharmacokinetics in patients; type: in vivo, human; details: for CL/F (apparent oral clearance): first dose (day 1); for Ka: first dose; for Cmax / Tmax / half-life: human, plasma, po
[9] = pediatric phase I single agent study, cited from earlier work
[10] = test system: refractory solid tumors; details: cited from earlier work
[11] = sorafenib 90 mg/m^2 twice daily, n 13, median (range)
[12] = sorafenib 110 mg/m^2 twice daily, n 4, median (range)
[13] = sorafenib 90 mg/m^2 oral, n 11, median (range)
[14] = sorafenib 110 mg/m^2 oral, n 4, median (range)

Question: For `O=P1(N(CCCl)CCCl)NCCCO1` (stereo not shown) [cyclophosphamide, Cyclophosphamide], which “recommended phase II dose, cyclophosphamide” value [1] is on record?
Answer: 50 mg/m^2

Question: What about the “cyclophosphamide absorption rate constant” value [2] of the same compound?
Answer: 0.17 h⁻¹

Question: What about the “cyclophosphamide apparent volume of distribution” value ([2]; 50 mg/m2) of the same compound?
Answer: 2.28 L/m^2

Question: What about the “published mean AUC at 600 mg/m^2 relative to median AUC of this study” value (12-fold higher oral dosage, ref 34 versus this study) of the same compound?
Answer: ~ 11 times

Question: And the “BSA normalized apparent oral clearance in adults” value (assuming average adult body surface area of 1.73 m^2, from ref 33)?
Answer: 3.57 L/h/m^2

Question: And the “clearance after intravenous administration in children” value ([3]; iv)?
Answer: 2.9-4.23 L/h/m^2

Question: And the “mean apparent oral clearance in adults” value ([3]; po)?
Answer: 6.18 L/h

Question: And the AUC(0-inf) [4]?
Answer: 62.5 µM·h

Question: Which “Sorafenib N-oxide Ctrough Day 7” value [5, 11] does the source give for `CNC(=O)c1cc(Oc2ccc(NC(=O)Nc3ccc(Cl)c(C(F)(F)F)c3)cc2)cc[n+]1[O-]` [sorafenib N-oxide] here?
Answer: 0.50 (0.11 – 4.5) mg/L

Question: And the “Sorafenib N-oxide Ctrough Day 13” value [5, 11]?
Answer: 0.54 (0.17 – 3.4) mg/L

Question: And the “Sorafenib N-oxide Ctrough Day 7” value [5, 12]?
Answer: 0.57 (0.37 – 1.5) mg/L

Question: And the “Sorafenib N-oxide Ctrough Day 13” value [5, 12]?
Answer: 0.37 (0.33 – 0.92) mg/L

Question: And the “Sorafenib N-oxide Ctrough Day 21” value [5, 12]?
Answer: 0.40 (0.20 – 0.78) mg/L

Question: Which results are given for `CNC(=O)c1cc(Oc2ccc(NC(=O)Nc3ccc(Cl)c(C(F)(F)F)c3)cc2)ccn1` [sorafenib, Sorafenib tosylate]?
Answer: metabolic conversion to sorafenib N-oxide, adult patients [6]: < 10%; metabolic conversion to sorafenib N-oxide, children with AML [6]: 33%; correlation of sorafenib steady-state concentrations with CECs [7]: inversely correlated; CL/F (apparent oral clearance) [8, 13]: 44 mL/min/m^2; CL/F (apparent oral clearance) [8, 14]: 39 mL/min/m^2; Ka [8, 13]: 0.10 (0.038 – 0.72) h^−1; Ka [8, 14]: 0.093 (0.080 – 0.15) h^−1; Cmax ([8]; 90 mg/m2): 1100 ng/mL; Tmax ([8]; 90 mg/m2): 8.7 h; half-life ([8]; 90 mg/m2): 5.5 h; Cmax ([8]; 110 mg/m2): 1600 ng/mL; Tmax ([8]; 110 mg/m2): 11 h; half-life ([8]; 110 mg/m2): 10 h; maximum tolerated dose (MTD) ([9]; twice daily): 200 mg/m^2; Grade 3 DLTs [9]: elevated lipase, hyponatremia, hand-foot syndrome (HFS), rash, hypertension, and elevated ALT; objective responses [9]: No objective responses were observed; concentration at 7 day ([5]; 90 mg/m^2 twice daily): 3500 ng/mL; concentration at 13 day ([5]; 90 mg/m^2 twice daily): 2500 ng/mL; concentration at 21 day ([5]; 90 mg/m^2 twice daily): 4800 ng/mL; concentration at 7 day ([5]; 110 mg/m^2 twice daily): 3000 ng/mL; concentration at 13 day ([5]; 110 mg/m^2 twice daily): 2100 ng/mL; concentration at 21 day ([5]; 110 mg/m^2 twice daily): 1600 ng/mL

Question: For “bevacizumab: VEGF-specific recombinant, humanized monoclonal antibody”, which dose-limiting toxicities ([10]; in vivo) is on record?
Answer: no dose-limiting toxicities (DLTs) were observed

Question: And the objective responses ([10]; pediatric phase I, single agent)?
Answer: No objective responses were observed
